Laboratory results from PubChem BioAssay (NCI).
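Results reflect a 48-hour exposure of cells in 96-well plates to compound at five concentrations. GI50 marks 50% less growth. TGI is the concentration that stops growth completely.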

Tests used:
Experiment in all cases: DTP human tumour cell line panel, 48 h
[1] = test system: 786-0 renal
[2] = test system: A498 renal
[3] = test system: A549 NSCLC
[4] = test system: ACHN renal
[5] = test system: BT-549 breast
[6] = test system: CAKI-1 renal
[7] = test system: CCRF-CEM leukemia
[8] = test system: COLO 205 colon
[9] = test system: DU-145 prostate
[10] = test system: EKVX NSCLC
[11] = test system: HCC-2998 colon
[12] = test system: HCT-116 colon
[13] = test system: HCT-15 colon
[14] = test system: HL-60(TB) leukemia
[15] = test system: HOP-62 NSCLC
[16] = test system: HOP-92 NSCLC
[17] = test system: HS 578T breast
[18] = test system: HT29 colon
[19] = test system: IGROV1 ovarian
[20] = test system: K-562 leukemia
[21] = test system: KM12 colon
[22] = test system: LOX IMVI melanoma
[23] = test system: M14 melanoma
[24] = test system: MALME-3M melanoma
[25] = test system: MCF7 breast
[26] = test system: MDA-MB-231 breast
[27] = test system: MDA-MB-435
[28] = test system: MDA-MB-468 breast
[29] = test system: MOLT-4 leukemia
[30] = test system: NCI-H226 lung
[31] = test system: NCI-H23 lung
[32] = test system: NCI-H460 lung
[33] = test system: NCI-H522 lung
[34] = test system: NCI/ADR-RES ovarian
[35] = test system: OVCAR-3 ovarian
[36] = test system: OVCAR-4 ovarian
[37] = test system: OVCAR-5 ovarian
[38] = test system: OVCAR-8 ovarian
[39] = test system: PC-3 prostate
[40] = test system: RPMI-8226 leukemia
[41] = test system: RXF 393 renal
[42] = test system: SF-268 CNS
[43] = test system: SF-295 CNS
[44] = test system: SF-539 CNS
[45] = test system: SK-MEL-2 melanoma
[46] = test system: SK-MEL-28 melanoma
[47] = test system: SK-MEL-5 melanoma
[48] = test system: SK-OV-3 ovarian
[49] = test system: SN12C renal
[50] = test system: SNB-19 CNS
[51] = test system: SNB-75 CNS
[52] = test system: SR leukemia
[53] = test system: SW-620 colon
[54] = test system: T-47D breast
[55] = test system: TK-10 renal
[56] = test system: U251 CNS
[57] = test system: UACC-257 melanoma
[58] = test system: UACC-62 melanoma
[59] = test system: UO-31 renal

C=C1CCC2C3(C)COC(c4ccc(F)cc4)OC3CCC2(C)C1C/C=C1/C(=O)OCC1O (configuration not stated)
GI50 [1]: 1.74 µM
TGI [1]: 3.15 µM
GI50 [2]: 13.7 µM
TGI [2]: 27 µM
GI50 [3]: 3.07 µM
TGI [3]: 13.1 µM
GI50 [4]: 1.69 µM
TGI [4]: 3.06 µM
GI50 [5]: 1.65 µM
TGI [5]: 3.19 µM
GI50 [6]: 3.06 µM
TGI [6]: 11.5 µM
GI50 [7]: 1.24 µM
TGI [7]: 5.2 µM
GI50 [8]: 1.86 µM
TGI [8]: 3.47 µM
GI50 [9]: 3.86 µM
TGI [9]: 13.8 µM
GI50 [10]: 4.57 µM
TGI [10]: 17.2 µM
GI50 [11]: 2.67 µM
TGI [11]: 8.69 µM
GI50 [12]: 1.42 µM
TGI [12]: 2.74 µM
GI50 [13]: 1.41 µM
TGI [13]: 3.24 µM
GI50 [14]: 1.74 µM
TGI [14]: 4.93 µM
GI50 [15]: 10.7 µM
TGI [15]: 22.9 µM
GI50 [16]: 2.17 µM
TGI [16]: 6.46 µM
GI50 [17]: 2.7 µM
TGI [17]: 9.69 µM
GI50 [18]: 1.78 µM
TGI [18]: 3.85 µM
GI50 [19]: 2.78 µM
TGI [19]: 10.1 µM
GI50 [20]: 2.09 µM
GI50 [21]: 2.81 µM
TGI [21]: 7.72 µM
GI50 [22]: 1.5 µM
TGI [22]: 2.83 µM
GI50 [23]: 2.2 µM
TGI [23]: 5.92 µM
GI50 [24]: 2.06 µM
TGI [24]: 5.16 µM
GI50 [25]: 1.1 µM
TGI [25]: 2.88 µM
GI50 [26]: 1.92 µM
TGI [26]: 4.03 µM
GI50 [27]: 1.84 µM
TGI [27]: 4.48 µM
GI50 [28]: 1.67 µM
TGI [28]: 3.21 µM
GI50 [29]: 2.79 µM
TGI [29]: 8.13 µM
GI50 [30]: 1.81 µM
TGI [30]: 3.58 µM
GI50 [31]: 3.08 µM
TGI [31]: 11.5 µM
GI50 [32]: 2.02 µM
TGI [32]: 5.48 µM
GI50 [33]: 1.45 µM
TGI [33]: 2.91 µM
GI50 [34]: 1.67 µM
TGI [34]: 3.55 µM
GI50 [35]: 1.83 µM
TGI [35]: 3.6 µM
GI50 [36]: 2.11 µM
TGI [36]: 5.9 µM
GI50 [37]: 2.01 µM
TGI [37]: 4.9 µM
GI50 [38]: 1.54 µM
TGI [38]: 3.4 µM
GI50 [39]: 2.19 µM
TGI [39]: 5.92 µM
GI50 [40]: 1.83 µM
TGI [40]: 5.05 µM
GI50 [41]: 2.41 µM
TGI [41]: 6.54 µM
GI50 [42]: 3.53 µM
TGI [42]: 14.4 µM
GI50 [43]: 1.87 µM
TGI [43]: 4.64 µM
GI50 [44]: 1.76 µM
TGI [44]: 3.16 µM
GI50 [45]: 1.89 µM
TGI [45]: 3.89 µM
GI50 [46]: 1.94 µM
TGI [46]: 4.02 µM
GI50 [47]: 2.73 µM
TGI [47]: 8.58 µM
GI50 [48]: 14.4 µM
TGI [48]: 27.8 µM
GI50 [49]: 1.48 µM
TGI [49]: 3.18 µM
GI50 [50]: 4.84 µM
TGI [50]: 16.9 µM
GI50 [51]: 1.58 µM
TGI [51]: 7.57 µM
GI50 [52]: 2.44 µM
TGI [52]: 6.51 µM
GI50 [53]: 1.25 µM
TGI [53]: 2.71 µM
GI50 [54]: 2.14 µM
TGI [54]: 9.87 µM
GI50 [55]: 3.85 µM
TGI [55]: 14.9 µM
GI50 [56]: 1.66 µM
TGI [56]: 3.09 µM
GI50 [57]: 2.04 µM
TGI [57]: 5.28 µM
GI50 [58]: 1.94 µM
TGI [58]: 4.8 µM
GI50 [59]: 1.55 µM
TGI [59]: 3.67 µM
